Test results taken from a compilation of properties of binary mixtures (doi:10.1021/acs.jpcc.9b02625).

Assay: xn = mol fraction of the nth substance listed
Settings: 303.15 K, 101 kPa

O=S(=O)([N-]S(=O)(=O)C(F)(F)F)C(F)(F)F.[Li+] + O=S1(=O)CCCC1
electrical conductivity (x1 = 0.1): 0.274 S/m | viscosity (x1 = 0.1): 28 mPa·s | electrical conductivity (x1 = 0.111): 0.262 S/m | viscosity (x1 = 0.111): 31 mPa·s | electrical conductivity (x1 = 0.2): 0.166 S/m | viscosity (x1 = 0.2): 90.3 mPa·s | electrical conductivity (x1 = 0.25): 0.104 S/m | viscosity (x1 = 0.25): 175 mPa·s | electrical conductivity (x1 = 0.333): 0.042 S/m | viscosity (x1 = 0.333): 627 mPa·s
